Assay results as given in US20100204182A1, “ECTONUCLEOTIDASE INHIBITORS” (RHEINISCHE FRIEDRICH-WILHELMS-UNIVERSITAT BONN, priority 2006, published 2010).

Assays:
rat NTPDase2 = molecular target: T1, rat NTPDase2 (Rattus norvegicus, UniProt O35795); assay: Rat NTPDase2 inhibition, in-capillary electrophoresis method (standard compounds); format: biochemical; conditions: read-out: NTPDase2 Ki ± SEM
T1 sequence (O35795 1-495): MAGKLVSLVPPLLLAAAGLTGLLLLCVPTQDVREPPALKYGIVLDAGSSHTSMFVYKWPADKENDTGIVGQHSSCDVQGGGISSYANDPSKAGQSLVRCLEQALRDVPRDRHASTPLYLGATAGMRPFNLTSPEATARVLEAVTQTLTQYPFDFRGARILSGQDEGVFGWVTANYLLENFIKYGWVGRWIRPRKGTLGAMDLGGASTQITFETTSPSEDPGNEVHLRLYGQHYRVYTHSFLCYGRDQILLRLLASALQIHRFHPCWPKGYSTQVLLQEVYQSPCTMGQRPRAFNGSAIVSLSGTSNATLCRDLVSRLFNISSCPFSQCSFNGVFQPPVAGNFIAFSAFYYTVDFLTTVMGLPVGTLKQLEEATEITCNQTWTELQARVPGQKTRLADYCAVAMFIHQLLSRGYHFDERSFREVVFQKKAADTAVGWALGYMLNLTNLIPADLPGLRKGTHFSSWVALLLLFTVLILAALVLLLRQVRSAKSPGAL

[1] = tested on: ecto-nucleotide pyrophosphatases (E-NPP); conditions: in words; cited from earlier work
rat NTPDase1 = molecular target: T2, rat NTPDase1 (Rattus norvegicus, UniProt P97687); assay: Rat NTPDase1 inhibition, in-capillary electrophoresis method (standard compounds); format: biochemical; conditions: read-out: NTPDase1 Ki ± SEM
T2 sequence (P97687 1-511): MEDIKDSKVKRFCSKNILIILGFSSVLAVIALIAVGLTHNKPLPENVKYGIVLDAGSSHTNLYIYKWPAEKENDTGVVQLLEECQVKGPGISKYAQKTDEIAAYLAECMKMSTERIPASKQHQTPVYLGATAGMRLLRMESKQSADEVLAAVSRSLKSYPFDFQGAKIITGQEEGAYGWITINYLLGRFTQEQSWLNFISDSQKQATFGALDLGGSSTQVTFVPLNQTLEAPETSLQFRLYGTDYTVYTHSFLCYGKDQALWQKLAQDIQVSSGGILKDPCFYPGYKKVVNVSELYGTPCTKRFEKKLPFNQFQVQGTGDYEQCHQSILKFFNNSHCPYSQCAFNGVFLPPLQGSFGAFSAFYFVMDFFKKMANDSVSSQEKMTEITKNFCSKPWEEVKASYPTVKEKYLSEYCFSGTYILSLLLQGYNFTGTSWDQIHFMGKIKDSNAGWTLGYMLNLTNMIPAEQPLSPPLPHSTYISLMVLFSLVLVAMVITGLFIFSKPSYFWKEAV

rat NTPDase3 = molecular target: T3, rat NTPDase3 (Rattus norvegicus, UniProt A6I415); assay: Rat NTPDase3 inhibition, in-capillary electrophoresis method (standard compounds); format: biochemical; conditions: read-out: NTPDase3 Ki ± SEM
T3 sequence (A6I415 1-529): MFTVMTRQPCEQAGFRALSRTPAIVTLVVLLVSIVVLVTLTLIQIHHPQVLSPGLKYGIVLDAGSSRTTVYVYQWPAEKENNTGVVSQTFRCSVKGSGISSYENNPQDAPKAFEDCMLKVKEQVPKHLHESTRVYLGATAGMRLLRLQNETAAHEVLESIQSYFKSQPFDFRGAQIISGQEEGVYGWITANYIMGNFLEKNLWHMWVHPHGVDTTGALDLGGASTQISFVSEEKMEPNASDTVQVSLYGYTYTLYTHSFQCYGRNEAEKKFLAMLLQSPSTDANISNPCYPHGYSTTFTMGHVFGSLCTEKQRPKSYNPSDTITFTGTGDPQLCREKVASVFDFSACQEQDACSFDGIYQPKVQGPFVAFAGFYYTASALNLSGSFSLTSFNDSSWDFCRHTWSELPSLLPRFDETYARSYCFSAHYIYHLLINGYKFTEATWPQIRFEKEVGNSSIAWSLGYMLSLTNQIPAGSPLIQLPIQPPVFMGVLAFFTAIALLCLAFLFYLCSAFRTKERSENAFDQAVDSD

P2Y2 = P2Y2 (Homo sapiens, UniProt P41231); assay: Potency of standard compounds at P2Y2 receptor; conditions: SEM not given
P2X1 = P2X1 (Homo sapiens, UniProt P51575); conditions: standard inhibitors; reference mark 15; read-out: P2X1 Ki ± SEM; cited from earlier work
P2Y4 = P2Y4 (Homo sapiens, UniProt P51582); assay: Potency of standard compounds at P2Y4 receptor
P2Y6 = P2Y6 (Homo sapiens, UniProt Q15077); assay: Potency of standard compounds at P2Y6 receptor; conditions: for Ki: standard compounds, SEM not given
P2Y12 = P2Y12 (Homo sapiens, UniProt Q9H244); assay: Potency of standard compounds at P2Y12 receptor; conditions: SEM not given
P2X3 = P2X3 (Homo sapiens, UniProt P56373); conditions: standard inhibitors; reference mark 15; read-out: P2X3 Ki ± SEM; cited from earlier work
P2X5 = P2X5 (Homo sapiens, UniProt Q93086); conditions: standard inhibitors; reference mark 15; read-out: P2X5 Ki ± SEM; cited from earlier work
P2X2 = P2X2 (Homo sapiens, UniProt Q9UBL9); conditions: standard inhibitors; reference mark 15; read-out: P2X2 Ki ± SEM; cited from earlier work
human NTPDase1 = molecular target: T4, human NTPDase1 (Homo sapiens, UniProt P49961); assay: NTPDase inhibition assay by capillary electrophoresis (CE), NTPDase1; format: biochemical; conditions: CE method, ATP 320 μM, Km 17 μM, read-out: NTPDase1 Ki [μM] ± SEM
T4 sequence (P49961 1-510): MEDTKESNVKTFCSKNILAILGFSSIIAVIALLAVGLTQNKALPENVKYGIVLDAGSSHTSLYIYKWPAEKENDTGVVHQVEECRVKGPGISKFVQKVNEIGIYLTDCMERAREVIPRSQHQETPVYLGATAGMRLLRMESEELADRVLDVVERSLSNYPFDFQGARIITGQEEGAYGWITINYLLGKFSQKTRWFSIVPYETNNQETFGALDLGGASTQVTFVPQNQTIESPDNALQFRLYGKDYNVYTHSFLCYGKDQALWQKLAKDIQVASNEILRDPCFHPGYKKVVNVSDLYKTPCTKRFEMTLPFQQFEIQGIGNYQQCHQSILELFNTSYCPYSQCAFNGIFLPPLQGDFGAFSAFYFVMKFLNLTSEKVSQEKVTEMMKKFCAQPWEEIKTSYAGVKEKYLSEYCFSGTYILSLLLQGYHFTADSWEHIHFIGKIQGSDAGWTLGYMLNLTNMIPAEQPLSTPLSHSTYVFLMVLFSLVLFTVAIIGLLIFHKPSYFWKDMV
Outline: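 Recombinant or native human NTPDase was run with 320 μM ATP in Hepes buffer pH 7.4 (NaCl, KCl, MgCl2, CaCl2) at 37° C for 15 min, stopped by heating at 99° C. Products were quantified by capillary electrophoresis (UV 210 nm, UMP internal standard). IC50 from 6-8 concentrations was converted to Ki by Cheng-Prusoff.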

rP2Y6 = rP2Y6 (Rattus norvegicus, UniProt Q63371); assay: Inhibition of UDP binding at rP2Y6; conditions: read-out: rP2Y6 % inhibition of UDP binding at 100 μM, n = 3, mean ± SEM
hP2Y12 = hP2Y12 (Homo sapiens, UniProt Q9H244); assay: Inhibition of [3H]PSB-0413 binding at hP2Y12; conditions: mean ± SEM, read-out: hP2Y12 % Inhibition of [^3H]PSB-0413 Binding at 10 μM, n = 3
Method: (§1) In table 2 inhibition data of selected examples at human P2Y receptor subtypes were collected. It can be seen that no compound was identified that inhibited P2Y receptors at high concentrations of 100 μM and 10 μM, respectively.

human NTPDase2 = molecular target: T5, human NTPDase2 (Homo sapiens, UniProt Q9Y5L3); assay: NTPDase inhibition assay by capillary electrophoresis (CE), NTPDase2; format: biochemical; conditions: for inhibition at 1000 µM: read-out: NTPDase2 inhibition (%) at 1 mM
T5 sequence (Q9Y5L3 1-495): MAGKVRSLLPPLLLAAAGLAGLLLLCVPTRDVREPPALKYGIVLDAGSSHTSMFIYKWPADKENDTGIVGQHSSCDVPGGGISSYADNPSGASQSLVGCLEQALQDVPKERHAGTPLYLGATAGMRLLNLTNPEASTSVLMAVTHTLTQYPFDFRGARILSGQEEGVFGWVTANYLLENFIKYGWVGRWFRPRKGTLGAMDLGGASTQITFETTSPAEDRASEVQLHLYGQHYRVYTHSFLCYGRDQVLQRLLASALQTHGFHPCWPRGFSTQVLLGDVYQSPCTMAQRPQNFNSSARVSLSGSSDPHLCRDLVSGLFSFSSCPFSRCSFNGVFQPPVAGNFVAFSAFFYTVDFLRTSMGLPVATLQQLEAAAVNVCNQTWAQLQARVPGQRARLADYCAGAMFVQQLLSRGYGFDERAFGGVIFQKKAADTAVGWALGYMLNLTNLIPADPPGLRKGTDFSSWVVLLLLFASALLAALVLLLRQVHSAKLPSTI

hP2Y2 = hP2Y2 (Homo sapiens, UniProt P41231); assay: Inhibition of UTP binding at hP2Y2; conditions: read-out: hP2Y2 % inhibition of UTP binding at 100 μM, n = 3, mean ± SEM
Method: as §1

hP2Y4 = hP2Y4 (Homo sapiens, UniProt P51582); assay: Inhibition of UTP binding at hP2Y4; conditions: read-out: hP2Y4 % inhibition of UTP binding at 100 μM, n = 3, mean ± SEM
Method: as §1

[2] = standard compounds, SEM not given

Sequence of P2Y4 (P51582 whole entry, species assumed): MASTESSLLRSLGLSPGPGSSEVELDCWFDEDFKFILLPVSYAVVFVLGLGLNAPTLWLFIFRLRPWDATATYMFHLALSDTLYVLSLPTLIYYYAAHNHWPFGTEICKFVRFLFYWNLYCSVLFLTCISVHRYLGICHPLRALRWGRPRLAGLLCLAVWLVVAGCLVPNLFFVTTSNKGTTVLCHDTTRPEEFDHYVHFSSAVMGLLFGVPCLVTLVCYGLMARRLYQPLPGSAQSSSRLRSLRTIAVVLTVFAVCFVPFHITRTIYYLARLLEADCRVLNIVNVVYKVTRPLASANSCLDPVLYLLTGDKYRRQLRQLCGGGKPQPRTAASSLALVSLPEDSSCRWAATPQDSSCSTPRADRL
Sequence of P2Y2 (P41231 whole entry, species assumed): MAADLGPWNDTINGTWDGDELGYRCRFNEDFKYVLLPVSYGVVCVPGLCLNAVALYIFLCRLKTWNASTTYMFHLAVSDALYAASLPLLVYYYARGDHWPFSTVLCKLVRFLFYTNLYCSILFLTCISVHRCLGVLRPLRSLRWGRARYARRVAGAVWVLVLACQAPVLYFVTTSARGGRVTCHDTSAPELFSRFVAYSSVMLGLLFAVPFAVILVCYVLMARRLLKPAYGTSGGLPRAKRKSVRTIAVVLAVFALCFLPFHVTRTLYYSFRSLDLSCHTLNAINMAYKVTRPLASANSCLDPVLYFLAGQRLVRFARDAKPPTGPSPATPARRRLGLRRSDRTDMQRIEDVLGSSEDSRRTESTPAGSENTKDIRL
Sequence of P2Y6 (Q15077 whole entry, species assumed): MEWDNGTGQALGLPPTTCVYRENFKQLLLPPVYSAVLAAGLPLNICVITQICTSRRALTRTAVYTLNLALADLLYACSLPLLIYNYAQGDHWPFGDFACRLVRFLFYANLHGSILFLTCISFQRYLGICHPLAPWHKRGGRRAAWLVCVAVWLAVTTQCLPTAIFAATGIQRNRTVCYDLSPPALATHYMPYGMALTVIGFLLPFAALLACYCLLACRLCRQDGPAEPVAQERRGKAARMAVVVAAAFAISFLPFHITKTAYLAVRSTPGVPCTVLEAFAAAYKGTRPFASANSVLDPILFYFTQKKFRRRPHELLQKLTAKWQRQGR
Sequence of hP2Y4 (P51582 whole entry): as the sequence (P51582 whole entry, species assumed) above
Sequence of P2X5 (Q93086 whole entry, species assumed): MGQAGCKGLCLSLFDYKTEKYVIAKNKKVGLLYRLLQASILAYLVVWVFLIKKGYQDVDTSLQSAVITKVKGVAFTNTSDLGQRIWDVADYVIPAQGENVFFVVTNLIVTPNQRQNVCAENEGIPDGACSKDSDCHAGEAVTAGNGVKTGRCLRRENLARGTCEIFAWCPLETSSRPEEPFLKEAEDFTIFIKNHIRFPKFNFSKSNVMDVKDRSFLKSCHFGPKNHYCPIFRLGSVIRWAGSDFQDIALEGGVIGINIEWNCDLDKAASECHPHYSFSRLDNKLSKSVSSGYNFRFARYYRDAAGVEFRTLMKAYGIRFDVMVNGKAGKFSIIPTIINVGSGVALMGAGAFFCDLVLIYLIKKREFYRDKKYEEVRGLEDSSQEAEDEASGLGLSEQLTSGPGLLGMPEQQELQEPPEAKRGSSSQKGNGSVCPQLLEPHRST
Sequence of P2X2 (Q9UBL9 whole entry, species assumed): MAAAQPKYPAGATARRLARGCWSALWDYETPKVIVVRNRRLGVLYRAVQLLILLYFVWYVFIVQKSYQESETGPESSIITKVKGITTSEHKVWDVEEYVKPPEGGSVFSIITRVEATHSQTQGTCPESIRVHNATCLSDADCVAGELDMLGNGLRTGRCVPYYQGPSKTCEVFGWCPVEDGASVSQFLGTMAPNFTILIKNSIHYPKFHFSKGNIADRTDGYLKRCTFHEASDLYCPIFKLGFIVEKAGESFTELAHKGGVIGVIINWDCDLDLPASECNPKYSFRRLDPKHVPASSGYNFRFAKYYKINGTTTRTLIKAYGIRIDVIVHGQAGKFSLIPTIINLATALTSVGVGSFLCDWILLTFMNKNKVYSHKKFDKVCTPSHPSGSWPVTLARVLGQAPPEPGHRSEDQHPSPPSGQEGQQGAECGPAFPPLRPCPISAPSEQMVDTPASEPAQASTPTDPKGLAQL
Sequence of hP2Y2 (P41231 whole entry): as the sequence (P41231 whole entry, species assumed) above
Sequence of P2X1 (P51575 whole entry, species assumed): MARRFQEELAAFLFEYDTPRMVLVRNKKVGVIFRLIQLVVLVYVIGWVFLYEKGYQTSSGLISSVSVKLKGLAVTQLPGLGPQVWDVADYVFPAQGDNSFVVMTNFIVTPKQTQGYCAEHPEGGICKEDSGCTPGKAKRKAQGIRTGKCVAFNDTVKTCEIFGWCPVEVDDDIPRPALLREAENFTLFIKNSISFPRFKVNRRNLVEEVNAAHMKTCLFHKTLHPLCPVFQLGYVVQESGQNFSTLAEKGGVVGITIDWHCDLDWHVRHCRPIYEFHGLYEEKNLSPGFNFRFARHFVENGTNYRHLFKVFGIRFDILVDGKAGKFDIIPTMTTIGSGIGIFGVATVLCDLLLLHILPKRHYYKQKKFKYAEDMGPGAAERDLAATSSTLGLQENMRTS
Sequence of hP2Y12 (Q9H244 whole entry): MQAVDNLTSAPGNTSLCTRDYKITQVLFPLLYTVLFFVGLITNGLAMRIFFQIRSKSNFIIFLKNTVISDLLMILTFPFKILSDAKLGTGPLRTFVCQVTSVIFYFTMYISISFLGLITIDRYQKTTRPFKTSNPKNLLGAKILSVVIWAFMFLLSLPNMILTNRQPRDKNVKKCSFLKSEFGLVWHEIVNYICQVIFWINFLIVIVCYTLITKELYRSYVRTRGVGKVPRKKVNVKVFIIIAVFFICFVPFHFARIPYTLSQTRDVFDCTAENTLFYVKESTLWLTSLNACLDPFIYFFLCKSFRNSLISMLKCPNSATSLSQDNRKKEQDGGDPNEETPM
Sequence of rP2Y6 (Q63371 whole entry): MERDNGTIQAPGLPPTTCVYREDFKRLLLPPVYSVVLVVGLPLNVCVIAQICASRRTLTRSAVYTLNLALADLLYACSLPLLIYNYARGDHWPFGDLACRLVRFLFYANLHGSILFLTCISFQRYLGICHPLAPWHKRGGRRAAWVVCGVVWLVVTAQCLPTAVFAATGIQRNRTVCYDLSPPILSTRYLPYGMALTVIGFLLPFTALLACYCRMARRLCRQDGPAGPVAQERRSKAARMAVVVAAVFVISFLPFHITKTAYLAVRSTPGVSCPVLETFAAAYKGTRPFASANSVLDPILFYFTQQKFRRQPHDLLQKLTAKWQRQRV
Sequence of P2Y12 (Q9H244 whole entry, species assumed): as the sequence (Q9H244 whole entry) above
Sequence of P2X3 (P56373 whole entry, species assumed): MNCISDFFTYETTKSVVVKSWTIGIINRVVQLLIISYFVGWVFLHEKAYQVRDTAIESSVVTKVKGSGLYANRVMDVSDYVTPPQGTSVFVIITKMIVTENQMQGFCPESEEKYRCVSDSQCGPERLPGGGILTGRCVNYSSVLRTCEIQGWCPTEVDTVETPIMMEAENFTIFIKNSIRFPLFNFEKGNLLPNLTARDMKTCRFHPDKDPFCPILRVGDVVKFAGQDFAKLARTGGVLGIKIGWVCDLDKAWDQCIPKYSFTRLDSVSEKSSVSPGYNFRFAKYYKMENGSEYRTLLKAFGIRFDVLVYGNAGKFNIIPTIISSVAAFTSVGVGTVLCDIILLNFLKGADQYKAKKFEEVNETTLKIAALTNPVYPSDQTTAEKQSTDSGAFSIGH

CCN(CC)c1ncnc2c1ncn2C1OC(COP(=O)(O)OP(=O)(O)C(Br)(Br)P(=O)(O)O)C(O)C1O (stereo not drawn) [ARL67156, N^6-Diethyl-β,γ-dibromomethylene-ATP]
Ki (rat NTPDase2): > 600 µM
metabolic stability towards ecto-nucleotide pyrophosphatases (E-NPP) [1]: metabolically unstable
Ki (rat NTPDase1): 27 ± 0.004 µM
Ki (rat NTPDase3): 112.1 ± 0.05 µM

Cc1nc(N=Nc2ccc(S(=O)(=O)O)cc2S(=O)(=O)O)c(COP(=O)(O)O)c(C=O)c1O [PPADS, pyridoxalphosphate-6-azophenyl-2′,4′-disulfonic acid]
Ki (rat NTPDase2): 44.2 ± 0.03 µM
P2Y2 Ki ± SEM [μM] (P2Y2): inactive
Ki (P2X1): 0.13 µM
P2Y4 inhib. at 100 μM (P2Y4; 100 μM): 73%
P2Y6 inhib. at 100 μM (P2Y6; 100 μM): 69%
Ki (rat NTPDase1): 46 ± 0.01 µM
Ki (rat NTPDase3): 3 ± 0.001 µM

Nc1c(S(=O)(=O)O)cc(Nc2ccc(Nc3nc(Cl)nc(Nc4cccc(S(=O)(=O)O)c4)n3)c(S(=O)(=O)O)c2)c2c1C(=O)c1ccccc1C2=O [RB2, reactive blue 2]
Ki (P2Y12): 1.3 µM
Ki (P2Y2): 1 µM
Ki (P2X1): 2 µM
Ki (P2X3): 50 µM
Ki (P2Y4; [2]): > 100 µM
Ki (P2Y6): 31 µM
Ki (P2X5): 20 µM
Ki (P2X2): 0.4 µM

CCOP(=O)(OCC)C(NC(=O)CNC(=O)[C@H]1O[C@@H](n2ccc(=O)[nH]c2=O)C(O)C1O)P(=O)(OCC)OCC (stereo in doubt) [Compound 10, 2-[(2S,3R,4S,5R)-5-(2,4-Dioxo-3,4-dihydropyrimidin-1(2H)-yl)-3,4-dihydroxy-tetrahydrofurane-2-carboxamido]ethaneamidomethylenediphosphonic acid tetraethylester]
Ki (human NTPDase1): 93 ± 14 µM
inhibition at 100 µM (rP2Y6): 8 ± 14%
inhibition at 10 µM (hP2Y12): 2 ± 5%
Ki (human NTPDase2): ~165 µM
inhibition at 1000 µM (human NTPDase2): 54%
inhibition at 100 µM (hP2Y2): -38 ± 11%
inhibition at 100 µM (hP2Y4): 34 ± 15%

CCOP(=O)(OCC)C(NC(=O)CCNC(=O)[C@H]1O[C@@H](n2ccc(=O)[nH]c2=O)C(O)C1O)P(=O)(OCC)OCC (stereo in doubt) [Compound 11, 3-[(2S,3R,4S,5R)-5-(2,4-Dioxo-3,4-dihydropyrimidin-1(2H)-yl)-3,4-dihydroxy-tetrahydrofurane-2-carboxamido]propaneamidomethylenediphosphonic acid tetraethylester]
Ki (human NTPDase1): 325 ± 25 µM
inhibition at 100 µM (rP2Y6): 14 ± 2%
inhibition at 10 µM (hP2Y12): 1 ± 5%
Ki (human NTPDase2): ~175 µM
inhibition at 1000 µM (human NTPDase2): 51%
inhibition at 100 µM (hP2Y2): -12 ± 24%
inhibition at 100 µM (hP2Y4): 7 ± 20%

Cc1ccc(C(=O)Nc2ccc(S(=O)(=O)O)c3cc(S(=O)(=O)O)cc(S(=O)(=O)O)c23)cc1NC(=O)c1cccc(NC(=O)Nc2cccc(C(=O)Nc3cc(C(=O)Nc4ccc(S(=O)(=O)O)c5cc(S(=O)(=O)O)cc(S(=O)(=O)O)c45)ccc3C)c2)c1 [Suramin, suramin]
Ki (rat NTPDase2): 65.4 ± 0.01 µM
Ki (P2Y2): 50 µM
P2Y4 Ki ± SEM [μM] (P2Y4; [2]): inactive
Ki (P2Y6): > 100 µM
Ki (P2X5): 1.6 µM
Ki (rat NTPDase1): 300 ± 0.1 µM
Ki (P2X2): 10 µM
Ki (rat NTPDase3): 12.7 ± 0.03 µM
